Where two headings read alike, the source gives them in different places.
How the values were obtained:
AMPA/kainate receptors = assay: Inhibition of synaptic field potentials (population spikes) in rat hippocampal slices; type: cell-based; conditions: population spikes in CA1, after 30 min. perfusion
Protocol: Synaptic potentials in the CA1 area of hippocampus evoked by stimulation of the Schaffer collaterals are mediated by AMPA/kainate receptors. […] Lett. 92, 64 (1988)].
The inhibition of population spikes in CA1 was studied in rat hippocampal slices after 30 min. perfusion application of the test compounds.

male CFLP mice [1] = assay: Anticonvulsive effect in mice, electroshock test; type: in vivo; conditions: Mus musculus, po, read-out: ED50 p.o., ES (electroshock)
Protocol: (§1) The anticonvulsive effect of the compounds of the formula (I) was measured by using the electroshock test [J. Pharmacol. Exp. Ther. 106, 319 (1952)], furthermore by using various chemical agents such as pentetrazole [J. Pharmacol. Exp. Ther. 108, 168 (1953)], strychnine [J. Pharmacol. Exp. Ther. 129, 75 (1960)], bemegride, nicotine and 4-aminopyridine. The test compounds were orally administered in 3 doses, to 10 male CFLP mice per dose.

male CFLP mice [2] = assay: Anticonvulsive effect in mice, pentetrazole; type: in vivo; conditions: Mus musculus, po, read-out: ED50 p.o., Pentetrazole
Protocol: as §1

male CFLP mice [3] = assay: Anticonvulsive effect in mice, strychnine; type: in vivo; conditions: Mus musculus, po, read-out: ED50 p.o., Strychnine
Protocol: as §1

male CFLP mice [4] = assay: Anticonvulsive effect in mice, bemegride; type: in vivo; conditions: Mus musculus, po, read-out: ED50 p.o., Bemegride
Protocol: as §1

male CFLP mice [5] = assay: Anticonvulsive effect in mice, nicotine; type: in vivo; conditions: Mus musculus, po
Protocol: as §1

male CFLP mice [6] = assay: Anticonvulsive effect in mice, 4-aminopyridine; type: in vivo; conditions: Mus musculus, po, read-out: ED50 p.o., 4-AP (4-aminopyridine)
Protocol: as §1

CFLP mice = assay: Inclined screen test in mice; type: in vivo; conditions: Mus musculus, ip, read-out: ED50 i.p., inclined screen test
Text: In Randall's inclined screen test [J. Pharmacol. Exp. Ther. 129, 163 (1960)] the compounds were applied in 3 i.p. doses to 10 CFLP mice per dose.

mice [7] = assay: Rotarod test in mice; type: in vivo; conditions: Mus musculus, ip, read-out: ED50 i.p., rotarod test
Text: The rotarod test was used to measure muscular tone and motor co-ordination [J. Am. Pharm. Assoc. 46, 208 (1957)].

cats = assay: Effect on spinal (polysynaptic) flexor reflexes in chloralose anaesthetized cats; type: in vivo; conditions: Felis catus, iv
Text: Res. Comm. 20, S1, 141 (1988)].

Acute toxicity in mice = conditions: mouse, in vivo
Protocol: The cause of mortality was respiratory insufficiency developing within 1 to 2 hours after i.p. administration and within 10 to 20 hours after oral application.

[8] = AMPA induced spreading depression in isolated chicken retina; type: cell-based; conditions: AMPA (5 μM)
Protocol: (§2) Anti-kainate and -AMPA effects were investigated in the in vitro retinal spreading depression model [Brain Res. 607, 189 (1993)]. AMPA/kainate antagonists prolong the latency of the development of spreading depression evoked. by kainate (5 μM), or AMPA (5 μM). In some cases the effect on spreading depression evoked by 100 μM NMDA was also studied to clarify the selectivity.

[9] = Kainate induced spreading depression in isolated chicken retina; type: cell-based; conditions: kainate (5 μM)
Protocol: as §2

mice [10] = assay: Protection against methamphetamine-induced dopaminergic neurotoxicity, in mice; type: in vivo; conditions: METH 2×20 mg/kg i.p., Example 128 3×5 mg/kg i.p., MK-801 3×2.5 mg/kg i.p.
Protocol: High doses of methamphetamine (2×20 mg/kg i.p.) decrease the striatal level of dopamine, which can be prevented by glutamate antagonists, e.g. the NMDA-antagonist MK-801 [Science 243, 398 (1989)].

Row | SMILES | IC50 (AMPA/kainate receptors) [µM] | ED50 (male CFLP mice [1]) [mg/kg] | ED50 (male CFLP mice [2]) [mg/kg] | ED50 (CFLP mice) [mg/kg] | ED50 (mice [7]) [mg/kg] | ED50 (cats) [mg/kg] | LD50 (Acute toxicity in mice; ip, read-out: LD50 i.p.) [mg/kg] | LD50 (Acute toxicity in mice; po, read-out: LD50 p.o.) [mg/kg] | IC50 [8] [nM] | IC50 [9] [nM] | further results
1 | CNC(=O)N1N=C(c2ccc(N)cc2)c2cc3c(cc2CC1C)OCO3 (stereo not shown) [Example 98, 1-(4-Aminophenyl)-3-methylcarbamoyl-4-methyl-7,8-methylenedioxy-3,4-dihydro-5H-2,3-benzodiazepine] | 12.6 | 17.1 | 21.3 | 18 | 8.6 | 0.14 | 93.1 | 96.6 | – | – | ED50 (male CFLP mice [3]): 29 mg/kg; ED50 (male CFLP mice [4]): 11 mg/kg; ED50 (male CFLP mice [5]): 19 mg/kg; ED50 (male CFLP mice [6]): 13.5 mg/kg
2 | NS(=O)(=O)c1cccc2c1c([N+](=O)[O-])cc1[nH]c(=O)c(=O)[nH]c12 [NBQX, 1,2,3,4-tetrahydro-6-nitro-2,3-dioxo-benzo(f)quinoxaline-7-sulfonamide, reference compound] | – | – | – | – | – | 0.91 | – | – | – | – | –
3 | CNC(=O)N1N=C(c2ccc(N)cc2)c2cc3c(cc2CC1C)OCO3 (single isomer, unassigned; (-)) [Example 123, (-)-1-(4-Aminophenyl)-3-methylcarbamoyl-4-methyl-7,8-methylenedioxy-3,4-dihydro-5H-2,3 benzodiazepine] | 3.9 | 8.4 | 13.8 | 8.8 | 1.9 | 0.05 | ~50 | 75 to 100 | 1700 | 500 | –
4 | CC(=O)N1N=C(c2ccc(N)cc2)c2cc3c(cc2CC1C)OCO3 (single isomer, unassigned; (-)) [Example 128, (-)-1-(4-Aminophenyl)-3-acetyl-4-methyl-7,8-methylenedioxy-3,4-dihydro-5H-2,3-benzodiazepine] | 7.8 | – | – | – | – | 0.13 | 73.5 | ~100 | 1000 | 2700 | ED50 (male CFLP mice [1]; mice, p.o.): 5.3 mg/kg; ED50 (male CFLP mice [2]; mice, p.o.): 16.8 mg/kg; ED50 (mice [7]; mice, i.p.): 2.3 mg/kg; (DOPAC + HVA)/DA, % (mice [10]; % of saline group): 144%; DA, % (mice [10]; % of saline group): 48%; (DOPAC + HVA)/DA, mean ± SE (mice [10]; striatal dopamine turnover): 0.36 ± 0.10; DA, μg/g tissue, mean ± SE (mice [10]; striatal dopamine): 7.17 ± 1.89 μg/g tissue
5 | N#Cc1cc2[nH]c(=O)c(=O)[nH]c2cc1[N+](=O)[O-] [CNQX, 1,2,3,4-tetrahydro-7-nitro-2,3-dioxo-quinoxalinecarbonitrile, reference compound] | 1.4 | – | – | – | – | – | – | – | – | – | –

— patent US5639751A, “N-acyl-2,3-benzodiazepine derivatives for treating acute and chronic neurodegenerative disorders” (priority 1990, dated 1997)
